According to patent publication US20230113037A1 (Bayer Aktiengesellschaft, priority 2019, published 2023):
Like-named read-outs stand apart in the source and are kept apart here.

Legend:
AHR [1] = biological target: T1, AHR (Mus musculus, UniProt P30561); assay: In vitro assay 3: antagonism in mouse cell line (AHR transactivation, firefly luciferase reporter, kynurenic acid prestimulated); type: cell-based
T1 sequence (P30561 1-848 P471L/N533S/M589L): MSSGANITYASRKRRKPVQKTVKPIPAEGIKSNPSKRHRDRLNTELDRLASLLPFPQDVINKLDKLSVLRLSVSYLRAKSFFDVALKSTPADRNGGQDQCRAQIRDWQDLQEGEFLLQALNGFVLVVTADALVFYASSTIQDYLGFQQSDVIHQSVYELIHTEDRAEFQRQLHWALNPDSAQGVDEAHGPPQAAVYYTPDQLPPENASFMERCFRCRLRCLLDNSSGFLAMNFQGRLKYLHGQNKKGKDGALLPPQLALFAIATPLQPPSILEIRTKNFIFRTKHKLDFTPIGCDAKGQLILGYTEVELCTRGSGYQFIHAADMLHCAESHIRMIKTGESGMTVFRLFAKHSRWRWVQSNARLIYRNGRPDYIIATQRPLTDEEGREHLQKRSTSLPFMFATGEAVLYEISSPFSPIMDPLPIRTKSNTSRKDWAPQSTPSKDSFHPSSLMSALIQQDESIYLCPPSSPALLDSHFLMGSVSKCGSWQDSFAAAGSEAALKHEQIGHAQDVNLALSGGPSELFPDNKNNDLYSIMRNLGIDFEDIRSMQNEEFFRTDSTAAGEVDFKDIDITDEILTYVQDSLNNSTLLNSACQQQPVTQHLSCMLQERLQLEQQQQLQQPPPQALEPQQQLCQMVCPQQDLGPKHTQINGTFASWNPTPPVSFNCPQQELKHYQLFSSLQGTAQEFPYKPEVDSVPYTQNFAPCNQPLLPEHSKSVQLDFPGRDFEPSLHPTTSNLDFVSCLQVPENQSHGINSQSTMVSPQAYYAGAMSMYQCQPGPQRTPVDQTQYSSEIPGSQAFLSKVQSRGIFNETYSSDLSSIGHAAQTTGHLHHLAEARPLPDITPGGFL
Method in brief: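 Cells were first stimulated with kynurenic acid, then exposed to test compound, after which firefly luciferase from a DRE-containing AHR reporter was read out. Signal was scaled between positive and negative controls. Cells not given kynurenic acid provided the inhibition reference.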

AHR [2] = biological target: T2, AHR (Homo sapiens, UniProt P35869); assay: In vitro assay 1: antagonism in human cell line (AHR transactivation, firefly luciferase reporter, kynurenic acid prestimulated); type: cell-based; settings: AHR Antagonism Human IC50 [M]
T2 construct: U87 MG glioblastoma cells (ATCC #HTB-14) endogenously expressing AHR; endogenous in cells; host or cells: U87 MG glioblastoma cells (ATCC #HTB-14)
T2 sequence (P35869 11-848): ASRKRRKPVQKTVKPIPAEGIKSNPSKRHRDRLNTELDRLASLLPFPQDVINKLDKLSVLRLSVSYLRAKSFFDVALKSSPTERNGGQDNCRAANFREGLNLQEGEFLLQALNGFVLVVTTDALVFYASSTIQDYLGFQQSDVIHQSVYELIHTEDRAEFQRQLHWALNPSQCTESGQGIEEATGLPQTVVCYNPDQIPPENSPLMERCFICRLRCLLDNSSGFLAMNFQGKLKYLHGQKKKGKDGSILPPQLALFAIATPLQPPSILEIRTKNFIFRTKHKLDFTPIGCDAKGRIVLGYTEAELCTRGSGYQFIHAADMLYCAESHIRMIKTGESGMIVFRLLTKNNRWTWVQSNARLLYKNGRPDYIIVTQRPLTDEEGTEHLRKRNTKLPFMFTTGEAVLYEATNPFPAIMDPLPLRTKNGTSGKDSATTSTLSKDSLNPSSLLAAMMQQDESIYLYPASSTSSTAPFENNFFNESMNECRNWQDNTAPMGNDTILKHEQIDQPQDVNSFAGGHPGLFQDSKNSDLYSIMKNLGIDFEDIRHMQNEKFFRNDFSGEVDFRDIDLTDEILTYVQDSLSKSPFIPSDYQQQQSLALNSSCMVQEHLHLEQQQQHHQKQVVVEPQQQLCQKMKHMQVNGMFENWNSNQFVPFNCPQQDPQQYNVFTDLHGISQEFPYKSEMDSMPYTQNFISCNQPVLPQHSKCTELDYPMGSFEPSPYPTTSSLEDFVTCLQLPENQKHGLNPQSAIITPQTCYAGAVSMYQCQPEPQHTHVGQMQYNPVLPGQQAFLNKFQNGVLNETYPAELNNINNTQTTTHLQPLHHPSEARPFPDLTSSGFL
Method in brief: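 U87 MG glioblastoma cells with endogenous AHR, stably carrying a DRE-driven firefly luciferase reporter and constitutive Renilla reporter, prestimulated with kynurenic acid before compound addition. Firefly and Renilla read by dual luciferase; Renilla flags toxicity; normalized to controls (150 μM kynurenic acid + 5 μM staurosporine as full inhibition); repeat values averaged or median.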

[3] = mouse Hepa 1c1c7 cells, 200 μM kynurenic acid, 20 hours, read-out: AHR Antagonism Mouse IC50

Row | IC50 (AHR [1]; [3]) | IC50 (AHR [2]) | SMILES | IC50 (AHR [1]; read-out: AHR Antagonism Mouse IC50, mouse Hepa 1c1c7 cells, 200 μM kynurenic acid, 20 hours)
1 | 111 nM | 5.32e-08 M | COc1ccc(-c2nc3c4cccc(Br)c4nc(N[C@@H]4CCCNC4=O)n3n2)cc1 [Example 223, (3R)-3-{[7-bromo-2-(4-methoxyphenyl)[1,2,4]triazolo[1,5-c]quinazolin-5-yl]amino}piperidin-2-one] | –
2 | 38.9 nM | 3.01e-08 M | COc1ccc(-c2nc3c4ccc(C)cc4nc(N[C@@H]4CCCCNC4=O)n3n2)cc1 [Example 228, (3R)-3-{[2-(4-methoxyphenyl)-8-methyl[1,2,4]triazolo[1,5-c]quinazolin-5-yl]amino}azepan-2-one] | –
3 | 101 nM | 5.82e-08 M | COc1ccc(-c2nc3c4ccc(Br)cc4nc(N[C@@H]4CCCCNC4=O)n3n2)cc1 [Example 229, (3R)-3-{[8-bromo-2-(4-methoxyphenyl)[1,2,4]triazolo[1,5-c]quinazolin-5-yl]amino}azepan-2-one] | –
4 | 0.406 nM | 8.14e-10 M | COc1ccc(-c2nc3c4cc(F)ccc4nc(N[C@@H]4CCCCNC4=O)n3n2)cc1 [Example 231, (3R)-3-{[9-fluoro-2-(4-methoxyphenyl)[1,2,4]triazolo[1,5-c]quinazolin-5-yl]amino}azepan-2-one] | –
5 | 1.4 nM | 1.7e-09 M | O=C1NCCCC[C@H]1Nc1nc2ccc(F)cc2c2nc(-c3ccccc3F)nn12 [Example 234, (3R)-3-{[9-fluoro-2-(2-fluorophenyl)[1,2,4]triazolo[1,5-c]quinazolin-5-yl]amino}azepan-2-one] | –
6 | 1.14 nM | 2.34e-09 M | COc1ccc(-c2nc3c4cc(Cl)ccc4nc(N[C@@H]4CCCCNC4=O)n3n2)cc1 [Example 235, (3R)-3-{[9-chloro-2-(4-methoxyphenyl)[1,2,4]triazolo[1,5-c]quinazolin-5-yl]amino}azepan-2-one] | –
7 | 21.2 nM | 2.62e-08 M | Cn1cc(-c2nc3c4cc(Cl)ccc4nc(N[C@@H]4CCCCNC4=O)n3n2)cn1 [Example 236, (3R)-3-{[9-chloro-2-(1-methyl-1H-pyrazol-4-yl)[1,2,4]triazolo[1,5-c]quinazolin-5-yl]amino}azepan-2-one] | –
8 | 38.7 nM | 1.33e-08 M | COc1ccc(-c2nc3c4cc(OC)ccc4nc(N[C@@H]4CCCCNC4=O)n3n2)cc1 [Example 237, (3R)-3-{[9-methoxy-2-(4-methoxyphenyl)[1,2,4]triazolo[1,5-c]quinazolin-5-yl]amino}azepan-2-one] | –
9 | 344 nM | 1.69e-07 M | COc1ccc2nc(N[C@@H]3CCCCNC3=O)n3nc(-c4cnn(C)c4)nc3c2c1 [Example 238, (3R)-3-{[9-methoxy-2-(1-methyl-1H-pyrazol-4-yl)[1,2,4]triazolo[1,5-c]quinazolin-5-yl]amino}azepan-2-one] | –
10 | 10.2 nM | 8.92e-09 M | COc1ccc2nc(N[C@@H]3CCCCNC3=O)n3nc(-c4ccc(F)cc4)nc3c2c1 [Example 239, (3R)-3-{[2-(4-fluorophenyl)-9-methoxy[1,2,4]triazolo[1,5-c]quinazolin-5-yl]amino}azepan-2-one] | –
11 | 171 nM | 4.08e-08 M | COc1ccc2nc(N[C@@H]3CCCCNC3=O)n3nc(-c4ccccc4F)nc3c2c1 [Example 240, (3R)-3-{[2-(2-fluorophenyl)-9-methoxy[1,2,4]triazolo[1,5-c]quinazolin-5-yl]amino}azepan-2-one] | –
12 | 1.93 nM | 1.27e-09 M | COc1ccc(-c2nc3c4cc(C)ccc4nc(N[C@@H]4CCCCNC4=O)n3n2)cc1 [Example 241, (3R)-3-{[2-(4-methoxyphenyl)-9-methyl[1,2,4]triazolo[1,5-c]quinazolin-5-yl]amino}azepan-2-one] | –
13 | 3.02 nM | 3.06e-09 M | COc1ccc(-c2nc3c4cc(Br)ccc4nc(N[C@@H]4CCCCNC4=O)n3n2)cc1 [Example 242, (3R)-3-{[9-bromo-2-(4-methoxypheny)[1,2,4]triazolo[1,5-c]quinazolin-5-yl]amino}azepan-2-one] | –
14 | 14.8 nM | 4.02e-09 M | COc1ccc(-c2nc3c4c(C)cccc4nc(N[C@@H]4CCCCNC4=O)n3n2)cc1 [Example 243, (3R)-3-{[2-(4-methoxyphenyl)-10-methyl[1,2,4]triazolo[1,5-c]quinazolin-5-yl]amino}azepan-2-one] | –
15 | 66.7 nM | 2.17e-08 M | Cn1cc(-c2nc3c4c(F)cccc4nc(N[C@@H]4CCCCNC4=O)n3n2)cn1 [Example 244, (3R)-3-{[10-fluoro-2-(1-methyl-1H-pyrazol-4-yl)[1,2,4]triazolo[1,5-c]quinazolin-5-yl]amino}azepan-2-one] | –
16 | 310 nM | 3.21e-08 M | COc1ccc(-c2nc3c4c(OC)cccc4nc(N[C@@H]4CCCCNC4=O)n3n2)cc1 [Example 245, (3R)-3-{[10-methoxy-2-(4-methoxyphenyl)[1,2,4]triazolo[1,5-c]quinazolin-5-yl]amino}azepan-2-one] | –
17 | 11.2 nM | 3.32e-09 M | COc1ccc(-c2nc3c4c(C#N)cccc4nc(N[C@@H]4CCCCNC4=O)n3n2)cc1 [Example 246, 2-(4-methoxyphenyl)-5-{[(3R)-2-oxoazepan-3-yl]amino}[1,2,4]triazolo[1,5-c]quinazoline-10-carbonitrile] | –
18 | 591 nM | 3.08e-07 M | Cn1cc(-c2nc3c4c(C#N)cccc4nc(N[C@@H]4CCCCNC4=O)n3n2)cn1 [Example 247, 2-(1-methyl-1H-pyrazol-4-yl)-5-{[(3R)-2-oxoazepan-3-yl]amino}[1,2,4]triazolo[1,5-c]quinazoline-10-carbonitrile] | –
19 | 1.82 nM | 5.71e-09 M | N#Cc1cccc2nc(N[C@@H]3CCCCNC3=O)n3nc(-c4ccc(F)cc4)nc3c12 [Example 248, 2-(4-fluorophenyl)-5-{[(3R)-2-oxoazepan-3-yl]amino}[1,2,4]triazolo[1,5-c]quinazoline-10-carbonitrile] | –
20 | 3.63 nM | 2.96e-08 M | N#Cc1cccc2nc(N[C@@H]3CCCCNC3=O)n3nc(-c4cccc(F)c4)nc3c12 [Example 249, 2-(3-fluorophenyl)-5-{[(3R)-2-oxoazepan-3-yl]amino}[1,2,4]triazolo[1,5-c]quinazoline-10-carbonitrile] | –
21 | 135 nM | 1.43e-08 M | COC(=O)c1cccc2c1nc(N[C@@H]1CCCCNC1=O)n1nc(-c3ccc(OC)cc3)nc21 [Example 250, Methyl 2-(4-methoxyphenyl)-5-{[(3R)-2-oxoazepan-3-yl]amino}[1,2,4]triazolo[1,5-c]quinazoline-7-carboxylate] | –
22 | 49.8 nM | 6.55e-08 M | COC(=O)c1cccc2nc(N[C@@H]3CCCCNC3=O)n3nc(-c4ccc(OC)cc4)nc3c12 [Example 252, methyl 2-(4-methoxyphenyl)-5-{[(3R)-2-oxoazepan-3-yl]amino}[1,2,4]triazolo[1,5-c]quinazoline-10-carboxylate] | –

Row | SMILES | IC50 (AHR [1]; [3]) | IC50 (AHR [2]) | IC50 (AHR [1]; read-out: AHR Antagonism Mouse IC50, mouse Hepa 1c1c7 cells, 200 μM kynurenic acid, 20 hours)
23 | Cn1cc(-c2nc3c4cc(F)ccc4nc(N[C@@H]4CCCCNC4=O)n3n2)cn1 [Example 232, (3R)-3-{[9-fluoro-2-(1-methyl-1H-pyrazol-4-yl)[1,2,4]triazolo[1,5-c]quinazolin-5-yl]amino}azepan-2-one] | – | 8.83e-09 M | 3.88 nM
